Assays:
[1] = subjective feeling of patients when treating dry eyes; format: in vivo; settings: 0.1% by weight of sodium hyaluronate in the composition
Text: Aqueous sodium hyaluronate solutions are fluids with non-Newtonian flow properties. By virtue of that physical property, aqueous sodium hyaluronate solutions are excellently well suited as slip and lubricating agents with a good cling effect and a prolonged residence time on the conjunctival and corneal epithelia, without adversely affecting visual efficiency.

[2] = eye drops containing at least 0.1% of sodium hyaluronate; Jpn. J. Ophthalmol. (1996) 40: 62-65; cited from earlier work
[3] = test system: cornea epithelium cells of rabbits; test: epithelium cell migration; format: cell-based; settings: 0.1% by weight sodium hyaluronate solution
[4] = test system: cornea epithelium; test: wound healing after injury to the cornea epithelium or cauterisation of the cornea; format: in vivo; settings: less scarring
[5] = tear film tearing time (fluorescein, slit lamp); format: in vivo; settings: concentration of 0.1% by weight to 0.3% by weight
Text: A further diagnostic parameter in regard to diagnosis of the “dry eye” syndrome is the tear film tearing time which makes it possible to provide information about the quality of the tear fluid. In that case for example the tear film is dyed with fluorescein and the patient is then asked to keep the eyes open as long as possible without a blink reflex. A slit lamp is then used to establish when the tear film tears open for the first time. If the period of time is less than 10 seconds, there is the suspicion of the “dry eye” syndrome.

[6] = test system: cornea-epithelial barrier; settings: dexpanthenol-bearing eye drops; barrier disturbed by insufficient tear film; Klinische Monatsblätter für Augenheilkunde (1996) 209; 84-88; cited from earlier work

Row | Compound | subjective feeling of the patients [1] | tear film stability [2] | epithelium cell migration [3] | wound healing [4] | prolonging the tear film tearing time [5] | cornea-epithelial barrier function [6]
1 | sodium hyaluronate | considerably improves | improvement in tear film stability | increased epithelium cell migration | faster and better wound healing |  | 
2 | hyaluronic acid |  |  |  | faster and better wound healing | highly effective | 
3 | CC(C)(CO)[C@@H](O)C(=O)NCCCO [dexpanthenol, D-(+)-2,4-dihydroxy-N-(3-hydroxypropyl)-3,5-dimethylbutyramide] |  |  |  |  |  | improve the cornea-epithelial barrier function
